The source made the active and inactive calls. No cut-off for these calls is given here.
Legend:
Rattus norvegicus [1] = assay: Antiosteoporotic activity in ovariectomized Sprague-Dawley rat assessed as trabecular thickness at 10 ug/kg, po qd at 6th week by micro-CT analysis (reference value: 0.086 +/- 0.0069 millimeter); assay type: functional, Trabecula
Rattus norvegicus [2] = assay: Antiosteoporotic activity in ovariectomized Sprague-Dawley rat assessed as trabecular separation at 3 ug/kg, po qd at 12th week by micro-CT analysis (reference value: 0.146 +/- 0.010 millimeter); assay type: functional, Trabecula
Rattus norvegicus [3] = assay: Antiosteoporotic activity in ovariectomized Sprague-Dawley rat assessed as trabecular thickness at 1 ug/kg, po qd at 18th week by micro-CT analysis (reference value: 0.103 +/- 0.0044 millimeter); assay type: functional, Trabecula
Rattus norvegicus [4] = assay: Antiosteoporotic activity in ovariectomized Sprague-Dawley rat assessed as prevention of bone mineral density loss at 1 to 3 ug/kg, po qd measured at 6th to 18th week by micro-CT analysis relative to OVX rat; assay type: functional, organism-based
Rattus norvegicus [5] = assay: Antiosteoporotic activity in ovariectomized Sprague-Dawley rat assessed as bone volume /tissue volume at 10 ug/kg, po qd at 6th week by micro-CT analysis (reference value: 41.33 +/- 5.04%); assay type: functional
Rattus norvegicus [6] = assay: Antiosteoporotic activity in ovariectomized Sprague-Dawley rat assessed as trabecular separation at 10 ug/kg, po qd at 12th week by micro-CT analysis (reference value: 0.146 +/- 0.010 millimeter); assay type: functional, Trabecula
Rattus norvegicus [7] = assay: Antiosteoporotic activity in ovariectomized Sprague-Dawley rat assessed as trabecular thickness at 10 ug/kg, po qd at 12th week by micro-CT analysis (reference value: 0.070 +/- 0.0063 millimeter); assay type: functional, Trabecula
Mus musculus = assay: Acute toxicity in ICR mouse assessed as survival at 5000 ug/kg, po after 2 weeks; assay type: organism-based; conditions: in vivo, 5 mg/kg, 336 h
Rattus norvegicus [8] = assay: Antiosteoporotic activity in ovariectomized Sprague-Dawley rat assessed as bone volume /tissue volume at 3 ug/kg, po qd at 18th week by micro-CT analysis (reference value: 27.36 +/- 1.99%); assay type: functional
Rattus norvegicus [9] = assay: Antiosteoporotic activity in ovariectomized Sprague-Dawley rat assessed as bone volume /tissue volume at 10 ug/kg, po qd at 18th week by micro-CT analysis (reference value: 27.36 +/- 1.99%); assay type: functional
Rattus norvegicus [10] = assay: Antiosteoporotic activity in ovariectomized Sprague-Dawley rat assessed as trabecular separation at 10 ug/kg, po qd at 18th week by micro-CT analysis (reference value: 0.234 +/- 0.021 millimeter); assay type: functional, Trabecula
Rattus norvegicus [11] = assay: Antiosteoporotic activity in ovariectomized Sprague-Dawley rat assessed as serum osteocalcin level at 10 ug/kg, po qd at 18th week by enzyme immunoassay (reference value: 1118.9 +/- 37.77 ng/ml); assay type: functional
Rattus norvegicus [12] = assay: Antiosteoporotic activity in ovariectomized Sprague-Dawley rat assessed as bone volume /tissue volume at 1 ug/kg, po qd at 18th week by micro-CT analysis (reference value: 27.36 +/- 1.99%); assay type: functional
Rattus norvegicus [13] = assay: Antiosteoporotic activity in ovariectomized Sprague-Dawley rat assessed as trabecular thickness at 3 ug/kg, po qd at 12th week by micro-CT analysis (reference value: 0.070 +/- 0.0063 millimeter); assay type: functional, Trabecula
Rattus norvegicus [14] = assay: Antiosteoporotic activity in ovariectomized Sprague-Dawley rat assessed as trabecular thickness at 3 ug/kg, po qd at 18th week by micro-CT analysis (reference value: 0.103 +/- 0.0044 millimeter); assay type: functional, Trabecula
Rattus norvegicus [15] = assay: Antiosteoporotic activity in ovariectomized Sprague-Dawley rat assessed as serum osteocalcin level at 3 ug/kg, po qd at 18th week by enzyme immunoassay (reference value: 1118.9 +/- 37.77 ng/ml); assay type: functional
Rattus norvegicus [16] = assay: Antiosteoporotic activity in ovariectomized Sprague-Dawley rat assessed as trabecular thickness at 1 ug/kg, po qd at 12th week by micro-CT analysis (reference value: 0.070 +/- 0.0063 millimeter); assay type: functional, Trabecula
[17] = molecular target: T1, Estrogen receptor (Homo sapiens) (UniProt P03372); assay: Antagonist activity at ERalpha (301 to 553 amino acid residues) (unknown origin) assessed as inhibition of E2 induced interaction with SRC1 after 24 hrs by yeast-two-hybrid assay; design: concentration or dose not given beside the values
T1 sequence (whole entry): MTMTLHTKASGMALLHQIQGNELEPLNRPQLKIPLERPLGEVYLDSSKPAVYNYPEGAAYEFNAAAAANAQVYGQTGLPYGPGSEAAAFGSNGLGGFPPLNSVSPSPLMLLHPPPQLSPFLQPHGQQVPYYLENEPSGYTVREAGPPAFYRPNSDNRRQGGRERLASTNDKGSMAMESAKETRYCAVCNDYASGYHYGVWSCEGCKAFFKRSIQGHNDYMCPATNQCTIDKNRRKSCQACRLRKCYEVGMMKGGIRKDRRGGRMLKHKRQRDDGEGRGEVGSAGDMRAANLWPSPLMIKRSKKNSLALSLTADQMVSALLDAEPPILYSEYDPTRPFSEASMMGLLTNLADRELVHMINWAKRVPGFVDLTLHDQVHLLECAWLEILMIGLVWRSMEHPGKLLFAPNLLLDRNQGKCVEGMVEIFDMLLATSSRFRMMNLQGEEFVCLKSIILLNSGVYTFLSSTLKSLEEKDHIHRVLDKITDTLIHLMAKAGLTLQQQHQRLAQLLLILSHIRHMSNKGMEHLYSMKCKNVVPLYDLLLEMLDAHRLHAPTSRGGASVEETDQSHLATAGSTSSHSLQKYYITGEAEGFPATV

Rattus norvegicus [18] = assay: Antiosteoporotic activity in ovariectomized Sprague-Dawley rat assessed as serum osteocalcin level at 1 ug/kg, po qd at 18th week by enzyme immunoassay (reference value: 1118.9 +/- 37.77 ng/ml); assay type: functional

With `O=C1c2cc(O)cc(O)c2[C@@H](c2ccc(O)cc2)[C@@H]1c1cc(O)cc(O)c1` [ISOPAUCIFLORAL F] the Activity (Rattus norvegicus [1]) was 0.082 mm, the Activity (Rattus norvegicus [2]) was 0.173 mm and the Activity (Rattus norvegicus [3]) was 0.106 mm. The Activity (Rattus norvegicus [4]) was “inactive”, the Activity (Rattus norvegicus [5]) was 40.25% and the Activity (Rattus norvegicus [6]) was 0.138 mm. The Activity (Rattus norvegicus [7]) was 0.087 mm, the Activity (Mus musculus) was “Non-toxic” and the Activity (Rattus norvegicus [8]) was 36.45%. It also gave an Activity (Rattus norvegicus [9]) of 66.42%, an Activity (Rattus norvegicus [10]) of 0.096 mm and an Activity (Rattus norvegicus [11]) of 702.2 ng/mL. It also gave an Activity (Rattus norvegicus [12]) of 35.56%, an Activity (Rattus norvegicus [13]) of 0.085 mm and an Activity (Rattus norvegicus [14]) of 0.102 mm. The Activity (Rattus norvegicus [15]) was 713.24 ng/mL, the Activity (Rattus norvegicus [16]) was 0.086 mm and the Activity [17] was 9.45%. The Activity (Rattus norvegicus [18]) was 812.1 ng/mL.

Reference: ChEMBL document CHEMBL3616426 (Eur J Med Chem, 2015)
